{"source": "paper PMC9276676", "about": "“Difluoromethylornithine (DFMO) and AMXT 1501 inhibit capsule biosynthesis in pneumococci” (Scientific Reports, 2022)", "key": {"S. pneumoniae TIGR4": {"tested_on": "S. pneumoniae TIGR4", "format": "cell-based, Streptococcus pneumoniae", "details": "DFMO 137 mM (1/2 MIC), n = 5", "procedure": "(§1) This was done to directly compare possible changes in intracellular concentrations of polyamines and capsule precursors as a result of DFMO inhibition of polyamine synthesis to the earlier report where polyamine synthesis was affected via gene deletion in TIGR4[24]. […] Cells were harvested (5000×g, 10 min, 4 °C), re-suspended in extraction solvent [40% acetonitrile, 40% methanol, 20% water with formic acid (0.1 M)] and transferred to bead-beater tubes (MP Biomedicals, Irvine, CA, USA). Cells were lysed using a FastPrep-24™ Classic (45 s, 6.5 m/s, RT, 3 times) (MP Biomedicals, Irvine, CA, USA) and incubated on ice (5 min after each spin). TIGR4 lysates were clarified (6000×g, 5 min, 4 °C), and metabolite differentiation and detection were performed using published protocols[28],[29]. Liquid chromatography-mass spectrometry-based (LC–MS) metabolomic analysis was performed with an Agilent Accurate Mass 6230 TOF coupled with an Agilent 1290 LC system using a Cogent Diamond Hydride Type C column. Briefly, the mobile phase consisted of the following: solvent A (ddH2O with 0.2% formic acid) and solvent B (acetonitrile with 0.2% formic acid). The gradient used was as follows: 0–2 min, 85% B; 3–5 min, 80% B; 6–7 min, 75% B; 8–9 min, 70% B; 10–11.1 min, 50% B; 11.1–14 min 20% B; 14.1–24 min 5% B followed by a 10 min re-equilibration period at 85% B at a flow rate of 0.4 mL/min. Mass axis dynamics was calibrated by continuous infusion of a reference mass solution using an isocratic pump. […] Metabolite identities were searched for using a mass tolerance of < 0.005 Da. Metabolite concentrations from the 5 biological replicates were normalized to biomass based on measurement of residual peptide content in individual samples using the Pierce BCA Protein Assay kit (Thermo Fisher Scientific, Waltham, MA, USA). Data were analyzed using Profinder B.07.00 software (Agilent Technologies, Santa Clara, CA, USA). Extracted molecular features detected in the mass analyzer were identified using accurate mass values and used to generate empirical molecular formulae using an in-house metabolite database that included known intermediates, amino acid precursors and polyamines and their derivatives. Statistical analysis of metabolite peak intensity data was performed using MetaboAnalyst 4.0[30]. Data were normalized (quantile), log transformed and significant fold change between WT and DFMO-treated WT were identified by Student’s t-test (p ≤ 0.05)."}, "S. pneumoniae D39": {"tested_on": "S. pneumoniae D39", "format": "cell-based, Streptococcus pneumoniae", "procedure": "as §1\nTo measure the polyamines, glucose and glucuronic acid in D39, TSQ Quantum Access triple-quadrupole tandem mass spectrometer (Thermo Fisher Scientific, Waltham, MA, USA) equipped with acquity UPLC system (Waters, Milford, MA, USA) was operated in positive and negative ion mode. Chromatographic separation was performed on Cogent Diamond Hydride HPLC column (2.1 mm × 150 mm, 4 μm) coupled with Congent Diamond Hydride HPLC Guard column (2.0 mm × 10 mm, 4 μm). The flow rate was 500 µL/min, the sample injection volume was 10 µL, and the column temperature was at 40 °C. The mobile phase A was composed of water with 0.1% v/v formic acid, and mobile phase B was composed of acetonitrile with 0.1% v/v formic acid. The gradient condition was 0 min (5% A, 95% B), 1 min (5% A, 95% B), 4.0 min (30% A, 70% B), 6 min (95% A, 5% B), 6.5 min (95% A, 5% B), 7 min (5% A, 95% B), and 10 min (5% A, 95%B). The total run time was 10 min, and the column eluate directed into the mass spectrometer using an electrospray ionization interface in positive and negative modes. The MS conditions were set as follow: spray voltage = 3500 V, vaporizer temperature = 350 °C, sheath gas = 25 psi, auxiliary gas = 10 psi, and capillary temperature = 350 °C. Samples were run in selected reaction monitoring (SRM) mode, and the optimized MS/MS parameters for ionization are given in Table 1."}, "[1]": {"details": "DFMO 34 mM, agmatine 20 mM, AMXT 1501 7.4 µM, p-value in bracket omitted"}}, "data": [{"smiles": "NCCC[C@](N)(C(=O)O)C(F)F", "note": "[DFMO, α-difluoromethylornithine]", "values": [{"measurement": "5,10-methylenetetrahydrofolate, fold change TIGR4+DFMO /TIGR4", "setting": "S. pneumoniae TIGR4", "result": 4.4}, {"measurement": "5-phospho-α-D-ribose 1-diphosphate (PRPP), fold change TIGR4+DFMO /TIGR4", "setting": "S. pneumoniae TIGR4", "result": 3.8}, {"measurement": "6-Phosphogluconate, fold change TIGR4+DFMO /TIGR4", "setting": "S. pneumoniae TIGR4", "result": 7.8}, {"measurement": "Agmatine, fold change TIGR4+DFMO /TIGR4", "setting": "S. pneumoniae TIGR4", "result": -2.0}, {"measurement": "Arginine, fold change TIGR4+DFMO /TIGR4", "setting": "S. pneumoniae TIGR4", "result": 1.1}, {"measurement": "Cadaverine, fold change TIGR4+DFMO /TIGR4", "setting": "S. pneumoniae TIGR4", "result": -1.5}, {"measurement": "Fructose 6-phosphate, fold change TIGR4+DFMO /TIGR4", "setting": "S. pneumoniae TIGR4", "result": -16.8}, {"measurement": "Fucose, fold change TIGR4+DFMO /TIGR4", "setting": "S. pneumoniae TIGR4", "result": -1.3}, {"measurement": "GSH, fold change TIGR4+DFMO /TIGR4", "setting": "S. pneumoniae TIGR4", "result": -23.2}, {"measurement": "GSSG, fold change TIGR4+DFMO /TIGR4", "setting": "S. pneumoniae TIGR4", "result": -41.3}, {"measurement": "Galactose 1-phosphate, fold change TIGR4+DFMO /TIGR4", "setting": "S. pneumoniae TIGR4", "result": -16.8}, {"measurement": "Glucosamine 6-phosphate, fold change TIGR4+DFMO /TIGR4", "setting": "S. pneumoniae TIGR4", "result": -21.0}, {"measurement": "Glucose 6-phosphate, fold change TIGR4+DFMO /TIGR4", "setting": "S. pneumoniae TIGR4", "result": 10.6}, {"measurement": "Glyceraldehyde 3-phosphate, fold change TIGR4+DFMO /TIGR4", "setting": "S. pneumoniae TIGR4", "result": -308.6}, {"measurement": "Lysine, fold change TIGR4+DFMO /TIGR4", "setting": "S. pneumoniae TIGR4", "result": -1.7}, {"measurement": "Methionine, fold change TIGR4+DFMO /TIGR4", "setting": "S. pneumoniae TIGR4", "result": -1.8}, {"measurement": "N-Acetylspermidine, fold change TIGR4+DFMO /TIGR4", "setting": "S. pneumoniae TIGR4", "result": -1.6}, {"measurement": "NADH, fold change TIGR4+DFMO /TIGR4", "setting": "S. pneumoniae TIGR4", "result": -358.8}, {"measurement": "NADPH, fold change TIGR4+DFMO /TIGR4", "setting": "S. pneumoniae TIGR4", "result": 25.1}, {"measurement": "Ornithine, fold change TIGR4+DFMO /TIGR4", "setting": "S. pneumoniae TIGR4", "result": -1.3}, {"measurement": "Putrescine, fold change TIGR4+DFMO /TIGR4", "setting": "S. pneumoniae TIGR4", "result": -1.9}, {"measurement": "Pyruvate, fold change TIGR4+DFMO /TIGR4", "setting": "S. pneumoniae TIGR4", "result": -1.74}, {"measurement": "S-adenosylmethionine, fold change TIGR4+DFMO /TIGR4", "setting": "S. pneumoniae TIGR4", "result": 64.2}, {"measurement": "Sedoheptulose 7-phosphate, fold change TIGR4+DFMO /TIGR4", "setting": "S. pneumoniae TIGR4", "result": -13.5}, {"measurement": "Spermidine, fold change TIGR4+DFMO /TIGR4", "setting": "S. pneumoniae TIGR4", "result": -3.1}, {"measurement": "Spermine, fold change TIGR4+DFMO /TIGR4", "setting": "S. pneumoniae TIGR4", "result": 26.6}, {"measurement": "Tetrahydrofolate, fold change TIGR4+DFMO /TIGR4", "setting": "S. pneumoniae TIGR4", "result": -1.4}, {"measurement": "UDP, fold change TIGR4+DFMO /TIGR4", "setting": "S. pneumoniae TIGR4", "result": -53.1}, {"measurement": "UDP-Galactose, fold change TIGR4+DFMO /TIGR4", "setting": "S. pneumoniae TIGR4", "result": -66.5}, {"measurement": "UDP-Glucose, fold change TIGR4+DFMO /TIGR4", "setting": "S. pneumoniae TIGR4", "result": -66.5}, {"measurement": "UDP-N-acetylfucosamine, fold change TIGR4+DFMO /TIGR4", "setting": "S. pneumoniae TIGR4", "result": 2.3}, {"measurement": "UDP-N-acetylgalactosamine, fold change TIGR4+DFMO /TIGR4", "setting": "S. pneumoniae TIGR4", "result": -18.9}, {"measurement": "UDP-N-acetylglucosamine, fold change TIGR4+DFMO /TIGR4", "setting": "S. pneumoniae TIGR4", "result": -18.9}, {"measurement": "UDP-N-acetylmannosamine, fold change TIGR4+DFMO /TIGR4", "setting": "S. pneumoniae TIGR4", "result": -18.9}, {"measurement": "UDP-N-acetylmuramic acid, fold change TIGR4+DFMO /TIGR4", "setting": "S. pneumoniae TIGR4", "result": -259.2}, {"measurement": "UMP, fold change TIGR4+DFMO /TIGR4", "setting": "S. pneumoniae TIGR4", "result": -2.1}, {"measurement": "intracellular glucose (peak intensity)", "setting": "S. pneumoniae D39; 1/8 MIC DFMO (34 mM), 1/2 MIC AMXT 1501 (7.4 µM)", "result": "significantly reduced"}, {"measurement": "intracellular glucuronic acid (peak intensity)", "setting": "S. pneumoniae D39; 1/8 MIC DFMO (34 mM), 1/2 MIC AMXT 1501 (7.4 µM), separately or in combination", "result": "significantly depleted"}, {"measurement": "Agmatine, fold change treated D39 /D39", "setting": "S. pneumoniae D39; [1]", "result": "-1.3 (2.13E05)"}, {"measurement": "Cadaverine, fold change treated D39 /D39", "setting": "S. pneumoniae D39; [1]", "result": "-0.8 (0.004)"}, {"measurement": "Lysine, fold change treated D39 /D39", "setting": "S. pneumoniae D39; [1]", "result": "-0.2 (0.018)"}, {"measurement": "N-acetyl spermidine, fold change treated D39 /D39", "setting": "S. pneumoniae D39; [1]", "result": "-0.6 (0.094)"}, {"measurement": "N-carbamoyl putrescine, fold change treated D39 /D39", "setting": "S. pneumoniae D39; [1]", "result": "-1.6 (0.026)"}, {"measurement": "Ornithine, fold change treated D39 /D39", "setting": "S. pneumoniae D39; [1]", "result": "0.4 (0.004)"}, {"measurement": "Putrescine, fold change treated D39 /D39", "setting": "S. pneumoniae D39; [1]", "result": "-0.4 (0.015)"}, {"measurement": "Spermidine, fold change treated D39 /D39", "setting": "S. pneumoniae D39; [1]", "result": "0.3 (0.309)"}, {"measurement": "Spermine, fold change treated D39 /D39", "setting": "S. pneumoniae D39; [1]", "result": "-0.7 (0.002)"}]}]}
